# Source: PubChem BioAssay (NCI)
#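 Values below derive from 48-hour exposures of cells grown in 96-well plates, with endpoints linearly interpolated between the two concentrations bracketing the appropriate inhibition level. GI50: concentration for 50% inhibition of growth. TGI is the concentration that stops growth completely.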
# What was measured:
# Assay in all cases: DTP human tumour cell line panel, 48 h
# SK-OV-3 ovarian = test system: SK-OV-3 ovarian
# MOLT-4 leukemia = test system: MOLT-4 leukemia
# RPMI-8226 leukemia = test system: RPMI-8226 leukemia
# EKVX NSCLC = test system: EKVX NSCLC
# HCC-2998 colon = test system: HCC-2998 colon
# U251 CNS = test system: U251 CNS
# NCI-H460 lung = test system: NCI-H460 lung
# MDA-MB-231 breast = test system: MDA-MB-231 breast
# SNB-19 CNS = test system: SNB-19 CNS
# HCT-15 colon = test system: HCT-15 colon
SMILES,GI50 (SK-OV-3 ovarian) [µM],TGI (SK-OV-3 ovarian) [µM],GI50 (MOLT-4 leukemia) [µM],TGI (MOLT-4 leukemia) [µM],GI50 (RPMI-8226 leukemia) [µM],TGI (RPMI-8226 leukemia) [µM],GI50 (EKVX NSCLC) [µM],TGI (EKVX NSCLC) [µM],GI50 (HCC-2998 colon) [µM],TGI (HCC-2998 colon) [µM],GI50 (U251 CNS) [µM],TGI (U251 CNS) [µM],GI50 (NCI-H460 lung) [µM],TGI (NCI-H460 lung) [µM],GI50 (MDA-MB-231 breast) [µM],TGI (MDA-MB-231 breast) [µM],GI50 (SNB-19 CNS) [µM],TGI (SNB-19 CNS) [µM],GI50 (HCT-15 colon) [µM],TGI (HCT-15 colon) [µM]
COc1cccc(CN(C)c2ccc(CO)c(Cl)c2)c1,11.3,> 60.7,33.1,> 100,12.8,> 78.3,24.8,97.9,16.9,74.8,3.32,> 64.1,0.97,21,31,> 100,35.2,> 100,24,> 100
COC(=O)c1cc2c(cc1Cl)SC1=NN(C)S(=O)N1S2(=O)=O (stereo not given),> 100,> 100,> 100,> 100,> 100,> 100,> 100,> 100,> 100,> 100,> 100,> 100,> 100,> 100,> 100,> 100,> 100,> 100,> 100,> 100
CCn1c(-c2cc3c([nH]c4ccccc43)c(-c3cccc(O)c3)n2)n[nH]c1=S,4.32,17.5,2.38,6.77,2.5,8.78,3.45,14.5,4.77,17.5,3.18,15.1,3.04,10.7,2.79,15.6,4.28,16.6,3.37,16.1
Cn1cccc1-c1cc(-c2ccccc2)[nH]c(=O)c1C#N,> 100,> 100,18.9,45.4,> 100,> 100,37.3,> 100,> 100,> 100,> 100,> 100,> 100,> 100,> 100,> 100,> 100,> 100,> 100,> 100
Cc1ccc2nc(-c3ccc(OCC(=O)N=Nc4c(O)[nH]c5ccccc45)cc3)[nH]c2c1,17.5,37,2.99,8.87,3.44,17.8,28,> 100,4.1,20.5,1.86,3.6,2.01,4.06,1.83,3.93,4.01,15.9,8.69,> 100
CN(Cc1ccc(C(F)(F)F)cc1)CC(O)C(=O)Nc1ccc(Cl)cc1 (stereo not given),1.48,2.96,1.42,3.28,1.02,2.8,1.18,2.51,1.66,3.08,1.73,3.16,1.59,3.21,1.34,2.73,1.78,3.28,1.28,2.61
O=[N+]([O-])c1nccn1CC(O)CN1CCCCC1 (stereo not given),,> 100,,> 100,,> 100,,> 100,,> 100,,> 100,,> 100,,> 100,,> 100,,> 100
CCCCCCCCOC(=O)c1c(C)[nH]c(/C=C2\N=C(c3ccc[nH]3)C=C2OC)c1C,0.899,15.9,< 0.0201,18.5,0.12,2.11,0.12,9.15,0.0398,3.46,0.0258,1.65,0.0765,11,< 0.0182,0.517,0.551,> 46.3,< 0.0163,3.15
